Organism: Rattus norvegicus
Assay: Open TG-GATES - Regimen: Single
Assay type: toxicity, organism-based, Sprague-Dawley
Design: regimen Single, gender Male, age 6 weeks
Conditions: in vivo, po, route gavage; for Bas / Eos / Fbg / Ht / Lym / MCHC / MCV / Mono / Neu / PT / Plat / RBC / Ret / WBC / APTT / Hb: tissue Blood; for KIDNEY_L / KIDNEY_R / KIDNEY_TOTAL: tissue Kidney; for LIVER: tissue Liver; for ALP / ALT / AST / BUN / CRE / Ca / Cl / DBIL / GLC / IP / LDH / Na / PL / RALB / TBIL / TC / TG / TP / gamma-GTP: tissue Plasma
[1] = 120 mg/kg, 3 h, dose level Middle
[2] = 120 mg/kg, 6 h, dose level Middle
[3] = 120 mg/kg, 9 h, dose level Middle
[4] = 120 mg/kg, 24 h, dose level Middle
[5] = 400 mg/kg, 3 h, dose level High
[6] = 400 mg/kg, 6 h, dose level High
[7] = 400 mg/kg, 9 h, dose level High
[8] = 400 mg/kg, 24 h, dose level High

SMILES: CC(C)N(CCC(C(N)=O)(c1ccccc1)c1ccccn1)C(C)C (stereo not drawn) [DISOPYRAMIDE]
- Bas [1]: 0%
- Eos [1]: 0.8%
- Fbg [1]: 307.4 mg/dL
- Ht [1]: 41.8%
- Lym [1]: 77.4%
- MCHC [1]: 32.3%
- MCV [1]: 62.8 fL
- Mono [1]: 2.2%
- Neu [1]: 19%
- PT [1]: 15.5 s
- Plat [1]: 121.9 x10_4/uL
- RBC [1]: 665.8 x10_4/ul
- Ret [1]: 7.4%
- WBC [1]: 63.5 x10_2/uL
- KIDNEY_L [1]: 0.9 g
- KIDNEY_R [1]: 1 g
- KIDNEY_TOTAL [1]: 1.9 g
- LIVER [1]: 9.5 g
- ALP [1]: 1368.8 IU/L
- ALT [1]: 51.2 IU/L
- AST [1]: 89.2 IU/L
- BUN [1]: 10.6 mg/dL
- CRE [1]: 0.2 mg/dL
- Ca [1]: 10.4 mg/dL
- Cl [1]: 106 meq/L
- DBIL [1]: 0.002 mg/dL
- GLC [1]: 161 mg/dL
- IP [1]: 8.5 mg/dL
- LDH [1]: 202.4 IU/L
- Na [1]: 141.6 meq/L
- PL [1]: 124 mg/dL
- RALB [1]: 3.1 g/dL
- TBIL [1]: 0.002 mg/dL
- TC [1]: 70.6 mg/dL
- TG [1]: 47 mg/dL
- TP [1]: 5.6 g/dL
- gamma-GTP [1]: 1 IU/L
- TERMINAL_BW [2]: 209.6 g
- APTT [2]: 22.7 s
- Bas [2]: 0%
- Eos [2]: 0.8%
- Fbg [2]: 320.6 mg/dL
- Hb [2]: 12.9 g/dL
- Ht [2]: 40.3%
- Lym [2]: 72.2%
- MCHC [2]: 31.9%
- MCV [2]: 63.4 fL
- Mono [2]: 2.6%
- Neu [2]: 23.4%
- PT [2]: 15.5 s
- Plat [2]: 123.1 x10_4/uL
- RBC [2]: 635.2 x10_4/ul
- Ret [2]: 7.7%
- WBC [2]: 86 x10_2/uL
- KIDNEY_L [2]: 0.9 g
- KIDNEY_R [2]: 1 g
- KIDNEY_TOTAL [2]: 1.9 g
- LIVER [2]: 9.2 g
- ALP [2]: 1458 IU/L
- ALT [2]: 41.2 IU/L
- AST [2]: 72.6 IU/L
- BUN [2]: 11.6 mg/dL
- CRE [2]: 0.2 mg/dL
- Ca [2]: 10.7 mg/dL
- Cl [2]: 106 meq/L
- DBIL [2]: 0.002 mg/dL
- GLC [2]: 159.2 mg/dL
- IP [2]: 9.1 mg/dL
- LDH [2]: 198.6 IU/L
- Na [2]: 139.4 meq/L
- PL [2]: 142 mg/dL
- RALB [2]: 3 g/dL
- TBIL [2]: 0.002 mg/dL
- TC [2]: 80.8 mg/dL
- TG [2]: 82.2 mg/dL
- TP [2]: 5.6 g/dL
- gamma-GTP [2]: 1.4 IU/L
- TERMINAL_BW [3]: 199.9 g
- APTT [3]: 21.7 s
- Bas [3]: 0%
- Eos [3]: 0.8%
- Fbg [3]: 330 mg/dL
- Ht [3]: 41.9%
- Lym [3]: 77.2%
- MCHC [3]: 32.4%
- MCV [3]: 64.1 fL
- Mono [3]: 1.8%
- Neu [3]: 19.8%
- PT [3]: 15.7 s
- Plat [3]: 117.5 x10_4/uL
- RBC [3]: 653.4 x10_4/ul
- Ret [3]: 7.3%
- WBC [3]: 61.1 x10_2/uL
- KIDNEY_L [3]: 0.9 g
- KIDNEY_R [3]: 1 g
- KIDNEY_TOTAL [3]: 1.9 g
- LIVER [3]: 8.3 g
- ALP [3]: 1309 IU/L
- ALT [3]: 35.6 IU/L
- AST [3]: 67.6 IU/L
- BUN [3]: 13.6 mg/dL
- CRE [3]: 0.2 mg/dL
- Ca [3]: 10.7 mg/dL
- Cl [3]: 107.6 meq/L
- DBIL [3]: 0 mg/dL
- GLC [3]: 149.6 mg/dL
- IP [3]: 8.9 mg/dL
- LDH [3]: 166 IU/L
- Na [3]: 140.8 meq/L
- PL [3]: 121 mg/dL
- RALB [3]: 3.1 g/dL
- TBIL [3]: 0.006 mg/dL
- TC [3]: 63.2 mg/dL
- TG [3]: 74 mg/dL
- TP [3]: 5.6 g/dL
- gamma-GTP [3]: 1.2 IU/L
- TERMINAL_BW [4]: 220.9 g
- APTT [4]: 21 s
- Bas [4]: 0%
- Eos [4]: 1%
- Fbg [4]: 319 mg/dL
- Ht [4]: 40.2%
- Lym [4]: 80.8%
- MCHC [4]: 32.7%
- MCV [4]: 64.1 fL
- Mono [4]: 1.8%
- Neu [4]: 15.6%
- PT [4]: 15.8 s
- Plat [4]: 119.1 x10_4/uL
- RBC [4]: 627.6 x10_4/ul
- Ret [4]: 7.3%
- WBC [4]: 89.5 x10_2/uL
- KIDNEY_L [4]: 1 g
- KIDNEY_R [4]: 1 g
- KIDNEY_TOTAL [4]: 2 g
- LIVER [4]: 11.2 g
- ALP [4]: 1568 IU/L
- ALT [4]: 53.6 IU/L
- AST [4]: 76.6 IU/L
- BUN [4]: 14.6 mg/dL
- CRE [4]: 0.2 mg/dL
- Ca [4]: 10.9 mg/dL
- Cl [4]: 105.6 meq/L
- DBIL [4]: 0 mg/dL
- IP [4]: 8.9 mg/dL
- LDH [4]: 160 IU/L
- Na [4]: 143.4 meq/L
- PL [4]: 157 mg/dL
- RALB [4]: 3 g/dL
- TBIL [4]: 0 mg/dL
- TC [4]: 82.2 mg/dL
- TG [4]: 118.2 mg/dL
- TP [4]: 5.5 g/dL
- gamma-GTP [4]: 1.6 IU/L
- TERMINAL_BW [5]: 210.5 g
- APTT [5]: 22.6 s
- Bas [5]: 0%
- Eos [5]: 1%
- Fbg [5]: 327.6 mg/dL
- Ht [5]: 41.8%
- Lym [5]: 74.6%
- MCHC [5]: 32.1%
- MCV [5]: 62.7 fL
- Mono [5]: 2.2%
- Neu [5]: 22%
- PT [5]: 15.5 s
- Plat [5]: 127.1 x10_4/uL
- RBC [5]: 667.8 x10_4/ul
- Ret [5]: 8%
- WBC [5]: 55.8 x10_2/uL
- KIDNEY_L [5]: 1 g
- KIDNEY_R [5]: 1 g
- KIDNEY_TOTAL [5]: 1.9 g
- LIVER [5]: 9.8 g
- ALT [5]: 47.4 IU/L
- AST [5]: 85.2 IU/L
- BUN [5]: 12.2 mg/dL
- CRE [5]: 0.1 mg/dL
- Ca [5]: 10.2 mg/dL
- Cl [5]: 106.2 meq/L
- DBIL [5]: 0.002 mg/dL
- GLC [5]: 129.8 mg/dL
- IP [5]: 8.9 mg/dL
- LDH [5]: 264.8 IU/L
- Na [5]: 142.8 meq/L
- PL [5]: 126.6 mg/dL
- RALB [5]: 3 g/dL
- TBIL [5]: 0 mg/dL
- TC [5]: 74.2 mg/dL
- TG [5]: 47.8 mg/dL
- TP [5]: 5.6 g/dL
- gamma-GTP [5]: 1 IU/L
- TERMINAL_BW [6]: 207.1 g
- APTT [6]: 22.8 s
- Bas [6]: 0%
- Eos [6]: 0.4%
- Fbg [6]: 326 mg/dL
- Ht [6]: 42.8%
- Lym [6]: 73.2%
- MCHC [6]: 31.8%
- MCV [6]: 62.5 fL
- Mono [6]: 2.6%
- Neu [6]: 23.2%
- PT [6]: 15.4 s
- Plat [6]: 122.6 x10_4/uL
- RBC [6]: 685.8 x10_4/ul
- Ret [6]: 7.5%
- WBC [6]: 67.9 x10_2/uL
- KIDNEY_L [6]: 1 g
- KIDNEY_R [6]: 1 g
- KIDNEY_TOTAL [6]: 2 g
- LIVER [6]: 9.2 g
- ALP [6]: 1240.8 IU/L
- ALT [6]: 38.8 IU/L
- AST [6]: 74 IU/L
- BUN [6]: 12.2 mg/dL
- CRE [6]: 0.1 mg/dL
- Ca [6]: 10.4 mg/dL
- Cl [6]: 105.8 meq/L
- DBIL [6]: 0.006 mg/dL
- GLC [6]: 157.2 mg/dL
- IP [6]: 8.7 mg/dL
- LDH [6]: 237.8 IU/L
- Na [6]: 140.6 meq/L
- PL [6]: 132.2 mg/dL
- RALB [6]: 3 g/dL
- TBIL [6]: 0.006 mg/dL
- TC [6]: 75.4 mg/dL
- TG [6]: 43.2 mg/dL
- TP [6]: 5.6 g/dL
- gamma-GTP [6]: 1.6 IU/L
- TERMINAL_BW [7]: 208.7 g
- APTT [7]: 24 s
- Bas [7]: 0%
- Eos [7]: 0.4%
- Fbg [7]: 326 mg/dL
- Ht [7]: 42.6%
- Lym [7]: 71.8%
- MCHC [7]: 31.9%
- MCV [7]: 62.9 fL
- Mono [7]: 1.8%
- Neu [7]: 25.4%
- PT [7]: 15.7 s
- Plat [7]: 120.6 x10_4/uL
- RBC [7]: 677.6 x10_4/ul
- Ret [7]: 7.7%
- WBC [7]: 64.5 x10_2/uL
- KIDNEY_L [7]: 1 g
- KIDNEY_R [7]: 1 g
- KIDNEY_TOTAL [7]: 2 g
- LIVER [7]: 9 g
- ALP [7]: 1238 IU/L
- ALT [7]: 41 IU/L
- AST [7]: 79 IU/L
- BUN [7]: 14 mg/dL
- CRE [7]: 0.1 mg/dL
- Ca [7]: 10.6 mg/dL
- Cl [7]: 106 meq/L
- DBIL [7]: 0 mg/dL
- GLC [7]: 145.6 mg/dL
- IP [7]: 8.4 mg/dL
- LDH [7]: 217.4 IU/L
- Na [7]: 142 meq/L
- PL [7]: 130.4 mg/dL
- RALB [7]: 3.1 g/dL
- TBIL [7]: 0 mg/dL
- TC [7]: 70.8 mg/dL
- TG [7]: 63.4 mg/dL
- TP [7]: 5.8 g/dL
- gamma-GTP [7]: 1.4 IU/L
- TERMINAL_BW [8]: 215.7 g
- APTT [8]: 23.1 s
- Bas [8]: 0%
- Eos [8]: 0.8%
- Fbg [8]: 289.6 mg/dL
- Hb [8]: 13 g/dL
- Ht [8]: 40.3%
- Lym [8]: 83%
- MCHC [8]: 32.2%
- MCV [8]: 63.1 fL
- Mono [8]: 1.6%
- PT [8]: 16.1 s
- Plat [8]: 118.5 x10_4/uL
- RBC [8]: 639.8 x10_4/ul
- Ret [8]: 6.5%
- WBC [8]: 82.6 x10_2/uL
- KIDNEY_L [8]: 1 g
- KIDNEY_R [8]: 1 g
- KIDNEY_TOTAL [8]: 1.9 g
- LIVER [8]: 8.8 g
- ALP [8]: 1524 IU/L
- ALT [8]: 48.2 IU/L
- AST [8]: 78.6 IU/L
- BUN [8]: 16 mg/dL
- CRE [8]: 0.2 mg/dL
- Ca [8]: 10.4 mg/dL
- Cl [8]: 106 meq/L
- DBIL [8]: 0 mg/dL
- GLC [8]: 153.2 mg/dL
- IP [8]: 8.8 mg/dL
- LDH [8]: 215.8 IU/L
- PL [8]: 133.2 mg/dL
- RALB [8]: 2.8 g/dL
- TBIL [8]: 0 mg/dL
- TC [8]: 75 mg/dL
- TG [8]: 58.2 mg/dL
- TP [8]: 5.4 g/dL
- gamma-GTP [8]: 2 IU/L
